{"source": "patent US4058624A", "about": "“Broad spectrum antibacterial compositions containing tris (hydroxymethyl)-aminomethane and diphenyl and loweralkyl substituted diphenyl polyamines” (Merck & Co., Inc., priority 1976, dated 1977)"}
{"test": "Acute toxicity, oral LD50 mice (Table I)", "conditions": "mouse, in vivo", "source_text": "The low toxicity of these compounds makes them especially attractive for use where contact with skin surfaces or possible ingestion renders the use of irritating or toxic materials inadvisable.", "units": {"LD50": "mg/kg"}}
{"molecule": "Cc1ccc(C(C)(C)C)cc1CCCC(CCCc1cc(C(C)(C)C)ccc1C)NCCNCCNCCN.Cl.Cl.Cl.Cl", "note": "[1-[1,7-di-(2-methyl-5-t-butylphenyl)-4-heptyl]-1,4,7,10-tetrazadecane tetrahydrochloride]", "LD50": 2070}
{"molecule": "Cc1cc(C)c(CCC(CCc2c(C)cc(C)cc2C)NCCCNCCCN)c(C)c1.Cl.Cl.Cl", "note": "[1-[1,5-di-(2,4,6-trimethylphenyl)-3-pentyl]-1,5,9-triazanonane trihydrochloride]", "LD50": 1150}
{"molecule": "Cc1ccc(C(C)(C)C)cc1CCCC(CCCc1cc(C(C)(C)C)ccc1C)NCCCNCCCN.Cl.Cl.Cl", "note": "[1-[1,7-di-(2-methyl-5-t-butylphenyl)-4-heptyl]-1,5,9-triazanonane trihydrochloride]", "LD50": 1650}
{"molecule": "CC(C)(C)c1ccc(CCCC(CCCc2ccc(C(C)(C)C)cc2)NCCCNCCCNCCCN)cc1.Cl.Cl.Cl.Cl", "note": "[1-[1,7-bis-(4-t-butylphenyl)-4-heptyl]-1,5,9,13-tetrazatridecane tetrahydrochloride]", "LD50": 1550}
